9 compounds from patent publication US10947196B2, “Beta adrenergic agonist and methods of using the same” (CURASEN THERAPEUTICS, INC., priority 2019, dated 2021) can be followed below.

Holding throughout (assay type): cell-based
Assay [1] concerns the target β1-adrenergic receptor (Homo sapiens (Human), UniProt P08588). Put plainly: cAMP Gs dynamic HTRF assay, β1 expressing CHO cells. The conditions noted are these: B1-AR. The procedure, abridged:
(§1)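 Intracellular cAMP quantified by Eu-donor/d2-acceptor HTRF after 30 min compound exposure at 37° C in stimulation buffer with IBMX. Concentrations ran 10 μM top, 5-fold steps, 10 points. Cell lines: 1321N1 astrocytoma and CHO expressing β1 or β2; EC50 via four-parameter fit, relative efficacy against isoproterenol.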

The target of assay [2] is β2 adrenergic receptor (Homo sapiens (Human), UniProt P07550). Put plainly: cAMP Gs dynamic HTRF assay, β2 expressing CHO cells. Conditions: B2-AR. Summed up:
as §1

Assay [3] has as its target β2 adrenergic receptors in human astrocytoma cells (1321N1) (Homo sapiens (Human), UniProt P07550). The experiment in a line: cAMP HTRF assay in human astrocytoma cells (1321N1). Conditions: Endogenous receptor; 1321N1 cells; read-out: Average pEC50 [Receptor subtype: Endogenous; Cell type: 1321N1] (converted). The procedure, abridged: as §1
Assay [4] addresses B3-AR (Homo sapiens (Human), UniProt P13945). Put plainly: cAMP potency assay, B3-AR expressing CHO-K1 cells. The conditions noted are these: read-out: Average pEC50 [Receptor subtype: B3-AR, Cell type: CHO-K1] (converted).
[5] abbreviates: CHO-K1 (HitHunter), read-out: Average pEC50 [Receptor subtype: B1-AR, Cell type: CHO-K1 (HitHunter)] (converted).
Where [6] appears, read: CHO-K cells, read-out: Average EC50 [Receptor subtype: B1-AR, Cell type: CHO-K].
Setting [7] is: CHO-K1 (HitHunter), read-out: Average pEC50 [Receptor subtype: B2-AR, Cell type: CHO-K1 (HitHunter)] (converted).
[8] abbreviates: CHO-K cells, read-out: Average EC50 [Receptor subtype: B2-AR, Cell type: CHO-K].

Like-named read-outs stand apart in the source and are kept apart here.

Sequence of β1-adrenergic receptor (P08588 whole entry, species assumed): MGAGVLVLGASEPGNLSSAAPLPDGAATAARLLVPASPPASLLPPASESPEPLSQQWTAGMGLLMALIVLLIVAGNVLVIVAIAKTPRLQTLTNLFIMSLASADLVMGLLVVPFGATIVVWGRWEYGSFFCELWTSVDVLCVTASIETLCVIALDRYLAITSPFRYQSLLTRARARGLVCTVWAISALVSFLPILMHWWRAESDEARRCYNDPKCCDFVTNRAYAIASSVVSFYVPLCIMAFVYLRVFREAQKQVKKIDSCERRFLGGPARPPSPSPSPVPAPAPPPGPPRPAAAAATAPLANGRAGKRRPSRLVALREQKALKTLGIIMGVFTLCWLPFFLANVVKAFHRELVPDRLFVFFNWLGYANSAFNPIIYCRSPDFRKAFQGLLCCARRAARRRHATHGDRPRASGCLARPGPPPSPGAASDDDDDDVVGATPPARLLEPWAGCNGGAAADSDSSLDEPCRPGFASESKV
Sequence of B3-AR (P13945 whole entry, species assumed): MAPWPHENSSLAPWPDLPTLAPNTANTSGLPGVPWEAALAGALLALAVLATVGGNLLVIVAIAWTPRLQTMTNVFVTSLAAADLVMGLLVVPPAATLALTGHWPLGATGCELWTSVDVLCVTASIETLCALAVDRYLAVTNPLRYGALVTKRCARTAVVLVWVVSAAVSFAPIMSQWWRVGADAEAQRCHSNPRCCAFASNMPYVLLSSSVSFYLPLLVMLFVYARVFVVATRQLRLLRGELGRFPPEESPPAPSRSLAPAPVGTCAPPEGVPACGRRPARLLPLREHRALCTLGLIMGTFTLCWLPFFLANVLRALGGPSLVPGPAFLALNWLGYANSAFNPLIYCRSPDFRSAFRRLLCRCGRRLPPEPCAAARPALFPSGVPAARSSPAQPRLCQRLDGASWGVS
Sequence of β2 adrenergic receptor (P07550 whole entry, species assumed): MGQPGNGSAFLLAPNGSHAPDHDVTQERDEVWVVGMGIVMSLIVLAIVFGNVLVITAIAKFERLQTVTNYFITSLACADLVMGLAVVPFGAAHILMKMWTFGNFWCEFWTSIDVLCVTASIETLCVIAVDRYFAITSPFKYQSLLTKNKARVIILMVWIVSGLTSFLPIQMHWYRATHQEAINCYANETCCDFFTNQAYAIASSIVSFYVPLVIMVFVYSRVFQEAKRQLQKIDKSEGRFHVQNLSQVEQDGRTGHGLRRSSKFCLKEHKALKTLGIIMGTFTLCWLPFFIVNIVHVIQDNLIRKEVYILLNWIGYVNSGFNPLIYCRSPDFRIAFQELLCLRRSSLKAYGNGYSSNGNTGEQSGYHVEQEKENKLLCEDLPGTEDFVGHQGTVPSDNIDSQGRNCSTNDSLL
Sequence of β2 adrenergic receptors in human astrocytoma cells (1321N1) (P07550 whole entry): as the sequence (P07550 whole entry, species assumed) above

In the case of `Cc1ccc([C@H](O)CNC(C)(C)C)nc1C(F)(F)F` [Compound 03-168], the EC50 is 0.01 to 0.1 µM in assay [1] (setting [5]); 0.01 to 0.1 µM in assay [1] (setting [6]); 0.01 to 0.1 µM in assay [2] (setting [7]); 0.01 to 0.1 µM in assay [2] (setting [8]); 0.1 to 1 µM in assay [3]; 0.1 to 1 µM in assay [4].

In the case of `CC(C)(C)NC[C@H](O)c1cccc(C(C)(F)F)n1` [Compound 03-169], the “Average pEC50 [Receptor subtype: B1-AR; Cell type: CHO-K1 (HitHunter)]” value (“Average pEC50” for short) in assay [1] (CHO-K1 (HitHunter)) was “B (B = 8-7)”. Further, the EC50 was 0.01 to 0.1 µM in assay [1] (setting [6]); below 0.01 µM in assay [2] (setting [7]); below 0.01 µM in assay [2] (setting [8]); 0.1 to 1 µM in assay [3]; above 1 µM in assay [4].

Consider `CC(C)(C)NC[C@H](O)c1cccc(N2CCCC2)n1` [Compound 03-173], for which the EC50 in assay [1] (setting [5]) was 0.1 to 1 µM; in assay [1] (setting [6]), 0.1 to 1 µM; in assay [2] (setting [7]), below 0.01 µM; in assay [2] (setting [8]), below 0.01 µM; in assay [3], below 0.01 µM; in assay [4], above 1 µM.

Consider `CC(C)c1cccc([C@@H](O)CNC(C)(C)C)n1` [Compound 03-175], for which the EC50 in assay [1] (setting [5]) was 0.01 to 0.1 µM; in assay [1] (setting [6]), 0.01 to 0.1 µM; in assay [2] (setting [7]), below 0.01 µM; in assay [2] (setting [8]), below 0.01 µM; in assay [3], below 0.01 µM; in assay [4], above 1 µM.

For `CCOc1cccc([C@@H](O)CNC(C)(C)C)n1` [Compound 03-177], the EC50 in assay [1] (setting [5]) was 0.01 to 0.1 µM; in assay [1] (setting [6]), 0.01 to 0.1 µM; in assay [2] (setting [7]), below 0.01 µM; in assay [2] (setting [8]) it was below 0.01 µM; in assay [3] it was below 0.01 µM; in assay [4] it was 0.1 to 1 µM.

`CC(C)Oc1cccc([C@@H](O)CNC(C)(C)C)n1` [Compound 03-179]: the “Average pEC50” value in assay [1] (CHO-K1 (HitHunter)) is given as “C (C = <7-6)”. For the same compound, the EC50 in assay [1] (setting [6]) was 0.1 to 1 µM; in assay [2] (setting [7]), below 0.01 µM; in assay [2] (setting [8]) it was below 0.01 µM; in assay [3], below 0.01 µM; in assay [4], 0.1 to 1 µM.

In the case of `COc1ccc(CC(C)(C)NC[C@H](O)c2cccc(C(F)(F)F)n2)cc1` [Compound 03-182], the EC50 in assay [1] (setting [5]) was 0.01 to 0.1 µM; in assay [1] (setting [6]), 0.01 to 0.1 µM; in assay [2] (setting [7]) it was below 0.01 µM; in assay [2] (setting [8]), below 0.01 µM; in assay [3], below 0.01 µM; in assay [4] it was 0.1 to 1 µM.

For `CC(C)(COc1ccccc1)NC[C@H](O)c1cccc(C(F)(F)F)n1` [Compound 03-184], the “Average pEC50” value in assay [1] (CHO-K1 (HitHunter)) is “B (B = 8-7)”. In addition, the EC50 in assay [1] (setting [6]) is 0.01 to 0.1 µM; in assay [2] (setting [7]) it was 0.01 to 0.1 µM; in assay [2] (setting [8]), 0.01 to 0.1 µM; in assay [3], 0.01 to 0.1 µM; in assay [4], 0.1 to 1 µM.

For `CC(C)(C)NCC(O)c1cncc(Cl)n1` (stereo not shown) [Compound 03-219], the EC50 in assay [1] (setting [5]) was 0.1 to 1 µM; in assay [2] (setting [7]) it was 0.1 to 1 µM; in assay [3], above 1 µM; in assay [4], 0.1 to 1 µM.
